Experimental findings from patent publication US20090069320A1, “Substituted 4-Amino-Quinazoline Compounds with Metabotropic Glutamate Receptor Regulating Activity and Uses Thereof” (Gruenenthal GmbH, priority 2006, published 2009) are described below.

Structures are written as SMILES. Structures can show the parent of a compound that is named as a salt.

T1 sequence (I3LUI7 19-1212): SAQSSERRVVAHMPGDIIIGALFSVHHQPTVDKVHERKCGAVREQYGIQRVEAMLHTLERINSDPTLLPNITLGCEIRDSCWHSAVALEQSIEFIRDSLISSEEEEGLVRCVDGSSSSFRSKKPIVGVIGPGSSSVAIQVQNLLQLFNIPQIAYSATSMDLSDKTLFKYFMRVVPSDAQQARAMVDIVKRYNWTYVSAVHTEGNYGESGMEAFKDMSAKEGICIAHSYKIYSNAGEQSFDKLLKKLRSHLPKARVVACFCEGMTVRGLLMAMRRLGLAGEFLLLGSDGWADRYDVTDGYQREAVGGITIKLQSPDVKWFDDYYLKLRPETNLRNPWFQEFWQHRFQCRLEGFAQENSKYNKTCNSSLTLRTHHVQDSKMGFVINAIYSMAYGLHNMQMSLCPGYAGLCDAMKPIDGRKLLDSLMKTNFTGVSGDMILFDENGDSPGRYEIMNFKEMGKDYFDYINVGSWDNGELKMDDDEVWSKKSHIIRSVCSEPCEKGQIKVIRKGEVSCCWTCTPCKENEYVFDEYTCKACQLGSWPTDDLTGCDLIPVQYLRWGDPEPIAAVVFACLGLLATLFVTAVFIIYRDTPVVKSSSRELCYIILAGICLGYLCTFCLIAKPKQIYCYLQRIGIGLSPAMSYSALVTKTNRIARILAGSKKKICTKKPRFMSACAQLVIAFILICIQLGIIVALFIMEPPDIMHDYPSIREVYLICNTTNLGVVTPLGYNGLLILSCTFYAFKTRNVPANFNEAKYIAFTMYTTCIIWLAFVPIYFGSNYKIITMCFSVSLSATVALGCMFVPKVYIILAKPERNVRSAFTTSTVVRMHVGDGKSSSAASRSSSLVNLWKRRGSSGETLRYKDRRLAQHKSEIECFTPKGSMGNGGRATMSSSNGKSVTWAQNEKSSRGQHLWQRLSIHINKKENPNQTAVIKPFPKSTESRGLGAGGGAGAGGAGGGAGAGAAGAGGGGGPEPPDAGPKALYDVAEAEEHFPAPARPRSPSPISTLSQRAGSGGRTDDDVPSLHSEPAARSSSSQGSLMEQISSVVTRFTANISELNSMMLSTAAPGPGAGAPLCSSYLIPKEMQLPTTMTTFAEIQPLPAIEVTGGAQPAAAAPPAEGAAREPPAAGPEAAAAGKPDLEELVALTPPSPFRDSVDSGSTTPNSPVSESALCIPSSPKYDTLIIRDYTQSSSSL

The first test addresses T1, mGluR5 receptor (Sus scrofa, UniProt I3LUI7).
T1 construct: 450 μg of protein from brain homogenate with 5 nM ^3[H]-MPEP; from tissue; host or cells: pig brain halves without medulla, cerebellum and pons
The test is described as follows: [3H]-MPEP mGluR5 receptor binding assay (pig brain homogenate). To be noted: 5 nM [3H]-MPEP, read-out: IC50 mGluR5 Receptor (pig) [^3H]-MPEP Bond. Put shortly:
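Radioligand displacement of 5 nM [3H]-MPEP from pig brain homogenate (450 μg protein; medulla, cerebellum and pons removed) in 20 mM Hepes pH 8.0. Compounds were tested at 10 μM, incubated 60 min at room temperature, then filtered and counted by scintillation. Non-specific binding was defined with 10 μM MPEP.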
For the molecule `O=C1C2CCCCC2C(=O)N1Cc1cccc(-c2ccc3ncnc(NC4CC4)c3c2)c1` (stereo not drawn) [Example 242, 2-[3-(4-cyclopropylamino-quinazolin-6-yl)-benzyl]-hexahydro-isoindole-1,3-dione hydrochloride], the IC50 was found to be 3080 nM.
Same read-out and setting: under `O=C(c1ccno1)N(Cc1cc(-c2ccc3ncnc(NC4CC4)c3c2)ccc1F)C1CC1` [Example 457, N-cyclopropyl-N-(5-(4-(cyclopropylamino)quinazolin-6-yl)-2-fluorobenzyl)isoxazole-5-carboxamide] stands 210 nM.
On the same count and under the same terms, under `CC(=O)N(Cc1cc(-c2ccc3ncnc(NC4CC4)c3c2)ccc1Cl)C1CC1` [Example 777, N-(2-chloro-5-(4-(cyclopropylamino)quinazolin-6-yl)benzyl)-N-cyclopropyl acetamide] stands 50 nM.

Staying with this test, now noted: 10 μM compound, 5 nM [3H]-MPEP.
On to `CC(C)(C)Nc1ncnc2ccc(-c3ccc(F)c(CN(C(=O)c4ccccn4)C4CC4)c3)cc12` [Example 826, N-(5-(4-(tert-butylamino)quinazolin-6-yl)-2-fluorobenzyl)-N-cyclopropyl picolinamide], for which the “% Inhibition of mGluR5 Receptor (pig) [^3H]-MPEP Bond at 10 μM” value (shortened to “% Inhibition of mGluR5 Receptor (pig)”) is given as 98%.
In the case of `CC(C)(C)Nc1ncnc2ccc(-c3ccc(F)c(CN(C(=O)C4CCCCC4)C4CC4)c3)cc12` [Example 809, N-(5-(4-(tert-butylamino)quinazolin-6-yl)-2-fluorobenzyl)-N-cyclopropyl cyclohexane carboxamide], the “% Inhibition of mGluR5 Receptor (pig)” value is 48%.
Consider `O=C(c1ccno1)N(Cc1cc(-c2ccc3ncnc(NC4CC4)c3c2)ccc1Cl)C1CC1` [Example 762, N-(2-chloro-5-(4-(cyclopropylamino)quinazolin-6-yl)benzyl)-N-cyclopropyl isoxazole-5-carboxamide], for which the “% Inhibition of mGluR5 Receptor (pig)” value is 91%.

Still in this test, the particulars now being: 10 μM compound, 5 nM [3H]-MPEP, read-out: % Inhibition of mGluR5 Receptor (pig) [^3H]-MPEP Bond at 10 μM.
Consider `COCC(=O)N(Cc1cc(-c2ccc3ncnc(NC4CC4)c3c2)ccc1Cl)C1CC1` [Example 801, N-(2-chloro-5-(4-(cyclopropylamino)quinazolin-6-yl)benzyl)-N-cyclopropyl-2-methoxyacetamide], for which the inhibition at 10 µM was found to be 88%.
Still for that read-out and setting: under `Cc1ccc(C(=O)N(C)Cc2cccc(-c3ccc4ncnc(NC5CC5)c4c3)c2)cc1` [Example 175, N-[3-(4-cyclopropylamino-quinazolin-6-yl)-benzyl]-4,N-dimethyl-benzamide] stands 85%.
Still for that read-out and setting: then `Cc1cc2ncnc(NC3CC3)c2cc1-c1cccc(CN(C(=O)c2ccccc2C(F)(F)F)C2CC2)c1` [Example 684, N-cyclopropyl-N-(3-(4-(cyclopropylamino)-7-methylquinazolin-6-yl)benzyl)-2-(trifluoromethyl)benzamide], with 96%.
Turning to `O=C(c1cccs1)N(Cc1cccc(-c2cc(F)c3ncnc(NC4CC4)c3c2)c1)C1CC1` [Example 685, N-cyclopropyl-N-(3-(4-(cyclopropylamino)-8-fluoroquinazolin-6-yl)benzyl)thiophene-2-carboxamide], the inhibition at 10 µM was 81%.
Regarding `Cc1nc(NC2CC2)c2cc(-c3ccc(F)c(CN(C(=O)Cc4ccccc4)C4CC4)c3)ccc2n1` [Example 644, N-cyclopropyl-N-(5-(4-(cyclopropylamino)-2-methylquinazolin-6-yl)-2-fluorobenzyl)-2-phenylacetamide], the inhibition at 10 µM came out at 85%.
On the same count and under the same terms, then `c1nc(NC2CC2)c2cc(-c3csc(CNC4CC4)c3)ccc2n1` [Example 300, N-cyclopropyl-6-(5-((cyclopropylamino)methyl)thiophen-3-yl)quinazoline-4-amine], with 51%.
The same measure, in the same setting: then `CC(=O)N(Cc1ccccc1)Cc1cccc(-c2ccc3ncnc(NC4CC4)c3c2)c1` [Example 219, N-benzyl-N-[3-(4-cyclopropylamino-quinazolin-6-yl)-benzyl]-acetamide; hydrochloride], with 45%; and `O=C(c1ccccc1C(F)(F)F)N(Cc1cc(-c2ccc3ncnc(NC4CC4)c3c2)ccc1F)C1CC1` [Example 413, N-cyclopropyl-N-(5-(4-(cyclopropylamino)quinazolin-6-yl)-2-fluorobenzyl)-2-(trifluoromethyl)benzamide], with 89%.
The same measure, in the same setting: then `O=C(C1CCCCC1)N(Cc1cc(-c2ccc3ncnc(NC4CC4)c3c2)ccn1)C1CC1` [Example 835, N-cyclopropyl-N-((4-(4-(cyclopropylamino)quinazolin-6-yl)pyridin-2-yl)methyl)cyclohexane carboxamide], with 58%.
As to `CC(C)(C)Nc1ncnc2ccc(-c3ccc(F)c(CN(C(=O)c4ccc(F)cc4F)C4CC4)c3)cc12` [Example 855, N-(5-(4-(tert-butylamino)quinazolin-6-yl)-2-fluorobenzyl)-N-cyclopropyl-2,4-difluorobenzamide], the inhibition at 10 µM is 83%.
`CNc1ncnc2ccc(-c3ccc(F)c(CN(C)S(=O)(=O)C(C)C)c3)cc12` [Example 578, N-(2-fluoro-5-(4-(methylamino)quinazolin-6-yl)benzyl)-N-methylpropane-2-sulfonamide]: the inhibition at 10 µM is 76%.
On to `COCC(=O)N(Cc1cccc(-c2cc(F)c3ncnc(NC4CC4)c3c2)c1)C1CC1` [Example 744, N-cyclopropyl-N-(3-(4-(cyclopropylamino)-8-fluoroquinazolin-6-yl)benzyl)-2-methoxyacetamide], for which the inhibition at 10 µM turned out to be 90%.
For the molecule `COc1ccc(C(=O)N(Cc2ccccc2)Cc2cccc(-c3ccc4ncnc(NC(C)C)c4c3)c2)cc1` [Example 155, N-benzyl-N-[3-(4-isopropylamino-quinazolin-6-yl)-benzyl]-4-methoxy-benzamide], the inhibition at 10 µM came to 67%.
Still for that read-out and setting: then `O=C(c1c(F)c(F)c(F)c(F)c1F)N(Cc1cccc(-c2cc(F)c3ncnc(NC4CC4)c3c2)c1)C1CC1` [Example 752, N-cyclopropyl-N-(3-(4-(cyclopropylamino)-8-fluoroquinazolin-6-yl)benzyl)-2,3,4,5,6-pentafluorobenzamide], with 62%.
Same read-out and setting: then `COc1ccc(CNc2ncnc3ccc(-c4cccc(CN(C(=O)c5cc(C)nn5C)C5CC5)c4)cc23)c(OC)c1` [Example 730, N-cyclopropyl-N-(3-(4-(2,4-dimethoxybenzylamino)quinazolin-6-yl)benzyl)-1,3-dimethyl-1H-pyrazole-5-carboxamide], with 35%.
As to `O=C(c1ccc(C(F)(F)F)cc1F)N(Cc1cccc(-c2ccc3ncnc(NC4CC4)c3c2)c1)C1CC1` [Example 177, N-cyclopropyl-N-[3-(4-cyclopropylamino-quinazolin-6-yl)-benzyl]-2-fluoro-4-trifluoromethyl-benzamide], the inhibition at 10 µM stood at 97%.
On to `Cc1cc2ncnc(NC3CC3)c2cc1-c1cccc(CN(C(=O)C(C)(C)C)C2CC2)c1` [Example 719, N-cyclopropyl-N-(3-(4-(cyclopropylamino)-7-methylquinazolin-6-yl)benzyl)pivalamide], for which the inhibition at 10 µM turned out to be 84%.
Still for that read-out and setting: under `CC(C)Nc1ncnc2ccc(-c3cccc(CN(Cc4ccccc4)C(=O)c4ccsc4)c3)cc12` [Example 50, thiophene-3-carboxylic acid benzyl-[3-(4-isopropylamino-quinazolin-6-yl)-benzyl]-amide] stands 30%.
On the same count and under the same terms, under `Cc1cc(C(=O)N(Cc2cc(-c3ccc4ncnc(NC(C)(C)C)c4c3)ccc2F)C2CC2)n(C)n1` [Example 831, N-(5-(4-(tert-butylamino)quinazolin-6-yl)-2-fluorobenzyl)-N-cyclopropyl-1,3-dimethyl-1H-pyrazole-5-carboxamide] stands 84%; under `CC(=O)N(C)Cc1cc(-c2ccc3ncnc(NCc4ccccc4)c3c2)ccc1F` [Example 595, N-(5-(4-(benzylamino)quinazolin-6-yl)-2-fluorobenzyl)-N-methylacetamide], 53%; under `O=S(=O)(c1cccs1)N(Cc1cc(-c2ccc3ncnc(NC4CC4)c3c2)ccn1)C1CC1` [Example 788, N-cyclopropyl-N-((4-(4-(cyclopropylamino)quinazolin-6-yl)pyridin-2-yl)methyl)thiophene-2-sulfonamide], 77%.
Consider `CNc1ncnc2ccc(-c3cccc(CN(C(=O)c4cccc(F)c4)c4ccccc4F)c3)cc12` [Example 687, 3-fluoro-N-(2-fluorophenyl)-N-(3-(4-(methylamino)quinazolin-6-yl)benzyl)benzamide], for which the inhibition at 10 µM amounted to 60%.
Take `Cc1nc(C(=O)N(Cc2cccc(-c3ccc4ncnc(NCCc5ccccc5)c4c3)c2)C2CC2)cs1` [Example 609, N-cyclopropyl-2-methyl-N-(3-(4-(phenethylamino)quinazolin-6-yl)benzyl)thiazole-4-carboxamide]: the inhibition at 10 µM is 30%.
`O=S(=O)(c1cccs1)N(Cc1cc(-c2ccc3ncnc(NC4CC4)c3c2)ccc1F)C1CC1` [Example 407, N-cyclopropyl-N-(5-(4-(cyclopropylamino)quinazolin-6-yl)-2-fluorobenzyl)thiophene-2-sulfonamide]: the inhibition at 10 µM was 92%.
Still for that read-out and setting: under `O=C(c1ccc(Cl)nc1)N(Cc1cccc(-c2ccc3ncnc(NC4CC4)c3c2)c1)C1CC1` [Example 179, 6-chloro-N-cyclopropyl-N-[3-(4-cyclopropylamino-quinazolin-6-yl)-benzyl]-nicotinamide] stands 89%; under `CCCN(Cc1cccc(-c2ccc3ncnc(Nc4ccccc4)c3c2)c1)C(=O)c1cnccn1` [Example 104, pyrazine-2-carboxylic acid [3-(4-phenylamino-quinazolin-6-yl)-benzyl]-propyl-amide], 48%; under `COc1ccc(C(=O)N(Cc2cc(-c3ccc4nc(C)nc(NC5CC5)c4c3)ccc2F)C2CC2)cc1OC` [Example 558, N-cyclopropyl-N-(5-(4-(cyclopropylamino)-2-methylquinazolin-6-yl)-2-fluorobenzyl)-3,4-dimethoxybenzamide], 42%.

For orientation: IC50 means the concentration needed to halve the response being measured. Broadly, the inhibition is the relative decrease from the control value, in per cent.
